In patent US20230036041A1, “SORTILIN BINDING CONJUGATE COMPOUNDS, COMPOSITIONS AND USES THEREOF FOR TREATING CANCER” (THERATECHNOLOGIES INC., priority 2019, published 2023):
Entries after “also recorded” stand apart in the source; their conditions may differ. Where two headings read alike, the source gives them in different places. Non-standard residues stand in square brackets, D forms with d. Residues, ends and D or L forms follow the SMILES beside them. *: point of attachment. X1 = CC(=O)O[C@@]12CO[C@@H]1C[C@H](O)[C@@]1(C)C(=O)[C@H](O)C3=C(C)[C@@H](OC(=O)[C@H](OC(=O)CCC(=O)*)[C@@H](NC(=O)OC(C)(C)C)c4ccccc4)C[C@@](O)([C@@H](OC(=O)c4ccccc4)[C@H]21)C3(C)C; Nle = CCCC[C@H](N)C(=O)O

What was measured:
[1] = in vitro stability in mouse plasma; format: in vitro ADME; settings: 37° C.
Protocol: Additional testing was conducted to study the stability of formulated TH1902 in mouse plasma. TH1902 was either solubilized in […] or formulated with solubilizing agents (Formulation: DMSO/Solutol™ HS15/Tween™-80/EtOH/Sol. Ac. Ac./D5W/water in the following V/V proportion 5/6/2.5/0.75/0.005/69/16.75). TH1902 was incubated in mouse plasma at 37° C. for the indicated times. Plasma proteins were precipitated by the addition of 4 volumes of ACN (87%) with formic acid (0.125%) followed by centrifugation (10,000 rpm×5 min). Supernatants were injected in UPLC/MS. Peak area corresponding to TH1902 was calculated and compared to time 0.

[2] = tested on: SK-MEL-28 xenografts; format: in vivo, mice
Protocol: (§1) Briefly, stock solution of formulated TH1902 was prepared as sterile aliquots of 10 mg/mL frozen liquid solutions (see below). On the day of animal dosing, frozen aliquots were thawed 30 minutes at room temperature then diluted with sterile 5% dextrose injection, USP (D5W) to the desired concentration for injection (i.e. typically 5.4 or 1.35 mg/mL).
(§2) TH1902 frozen stock solution were prepared as follow: • 1. Make the TH1902 diluent solution (Diluent) the day before the solubilization. Diluent: 10% Tween™ 80 in D5W USP (w/v) with 0.04% of formic acid (v/v), ˜pH 2.9. Leave solution at room temperature until TH1902 solubilization (next day). • 2. Weigh 60 mg of TH1902 API into a 14 ml glass vial with screw caps. Adjust TH1902 weights to reflect TH1902 purity according to the certificate of analysis. • 3. Add 90% of diluent solution needed to prepare the TH1902 10 mg/ml stock solution. • 4. Swirl the content of the bottle to form opaque mixture and place a stir bar. • 5. Place bottle in the heating apparatus (glass water bath and mount for holding vial with thermometer and stir bar on a digital heating plate). Begin mixing the content of the bottle. • 6. Gradually increase the temperature of water bath in increments of 5° C. every 30 minutes until mixture turns clear (temperature ramping up to 45° C. over a period of time of about 165 to 180 minutes). […] Transfer the formulation to a graduated glass cylinder and bring to final calculated volume with diluent solution. • 9. […] Perform UPLC analysis against a TH1902 standard curve for quantification and purity assessment. • 11. […]
Two of the sortilin-expressing melanoma cancer cell lines (SK-MEL-28 and B16-F10) were used to monitor whether TH1902 impeded the growth of the cells when administered at 35 mg/kg/week, versus unconjugated docetaxel at 15 mg/kg/week. This is the maximum tolerated dose (MTD) for free docetaxel, and the TH1902 formulation contains the equivalent quantity of docetaxel within this peptide drug conjugate. […] This difference was quantified when the control group reached the tumor volume endpoint at day-42. […]

[3] = tested on: MDA-MB-231/Luc (triple-negative breast cancer) xenografts; assay: tumor growth inhibition, MDA-MB-231/Luc xenografts in nude mice, TH1902 formulations (Examples 3A, 3B); format: in vivo
Protocol: TH1902 and docetaxel (supplied by Wonda Science Inc.) were used. […] Both treatments were administered intravenously, on a per week basis over 6 weeks.
8 different formulations comprising TH1902 were tested.
These are derived from a triple-negative breast cancer (TNBC) and they stably express firefly luciferase. […] Cell counts and cell viability were assessed with a BioRad TC20™ automated cell counter.
60 young adult, female, homozygous nude mice (Crl:CD1-Foxn1^nu), obtained from Charles River Canada Inc. (St-Constant, Quebec) were used in this study. Healthy mice were selected based on normal veterinary examination.
Tumor growth was monitored, and mice were randomly assigned to groups the vehicle group, docetaxel group or one of the 8 TH1902 formulations group (6 mice per group) for further treatment when tumor volumes reached 40-140 mm^3 or after 2-3 days of significant increase. Experimental procedures
Mice were first anesthetized with isoflurane and oxygen. Two-dimensional measurements were taken with electronic calipers during the study and tumor volume was calculated using the following formula: tumor volume (mm^3)=0.52*a*b^2, where 0.52 is a constant to calculate the volume of an ellipsoid (π/6), where “a” is the longest diameter and “b” is the shortest diameter[3]. […]
All mice were observed daily for changes in appearance and behavior, and events recorded when appropriate. […]

[4] = tested on: PANC-1 subcutaneous tumor xenografts; assay: pancreatic cancer xenograft model (PANC-1); format: in vivo, mice; settings: vs vehicle
Protocol: as §1
as §2, with “6.” for “6. Gradually increase the temperature of water bath in increments of 5° C. every 30 minutes until mixture turns clear (temperature ramping up to 45° C. over a period of time of about 165 to 180 minutes).”

SMILES	half-life ([1]; TH1902 formulated with solubilizing agents (DMSO/Solutol HS15/Tween-80/EtOH/Sol. Ac. Ac./D5W/water 5/6/2.5/0.75/0.005/69/16.75)) [h]	half-life ([1]; TH1902 solubilized in DMSO) [h]	body weight of mice ([2]; TH1902 35 mg/kg/week, docetaxel 15 mg/kg/week)	tumor volumes / tumor growth up to Day 24 ([3]; 8.75 mg/kg/week TH1902, docetaxel at ¼ MTD, vs vehicle, FIG. 16)	ΔT/ΔC (%) (at endpoint, Day-24) ([3]; 8.75 mg/kg/week of TH1902 (docetaxel 3.75 mg/kg))	tumor growth / tumor size, low dose ([4]; docetaxel 3.75 mg/kg, TH1902 8.75 mg/kg, day 21 and extended)	tumor growth / tumor size, high dose ([4]; docetaxel 15 mg/kg (MTD), TH1902 35 mg/kg, day 21)	tumor growth / tumor volumes ([2]; TH1902 35 mg/kg/week, docetaxel 15 mg/kg/week, endpoint day-42, FIG. 27)	body weight of mice ([2]; mouse, in vivo)
CCCC[C@H](NC(=O)[C@H](CC(N)=O)NC(=O)[C@H](CCCNC(=N)N)NC(=O)[C@@H](NC(=O)CNC(=O)[C@H](C)NC(=O)[C@H](CCCCNC(=O)CCC(=O)O[C@@H](C(=O)O[C@H]1C[C@@]2(O)[C@@H](OC(=O)c3ccccc3)[C@@H]3[C@]4(OC(C)=O)CO[C@@H]4C[C@H](O)[C@@]3(C)C(=O)[C@H](O)C(=C1C)C2(C)C)[C@@H](NC(=O)OC(C)(C)C)c1ccccc1)NC(=O)[C@H](C)NC(=O)[C@H](CCCNC(=N)N)NC(=O)[C@@H](NC(=O)CNC(C)=O)C(C)C)C(C)C)C(=O)N[C@@H](Cc1ccccc1)C(=O)N[C@@H](CCCCNC(=O)CCC(=O)O[C@@H](C(=O)O[C@H]1C[C@@]2(O)[C@@H](OC(=O)c3ccccc3)[C@@H]3[C@]4(OC(C)=O)CO[C@@H]4C[C@H](O)[C@@]3(C)C(=O)[C@H](O)C(=C1C)C2(C)C)[C@@H](NC(=O)OC(C)(C)C)c1ccccc1)C(=O)N[C@@H](CO)C(=O)N[C@@H](CCC(=O)O)C(=O)N[C@@H](CO)C(=O)N[C@@H](Cc1ccc(O)cc1)C(=O)O [TH1902, Acetyl-GVRAK(docetaxel)AGVRN(Nle)FK(docetaxel)SESY] (Ac-GVRAK(X1)AGVRN[Nle]FK(X1)SESY-OH)	30	5	remained within −20% endpoint limit	–	–	–	–	–	–
CC(=O)O[C@@]12CO[C@@H]1C[C@H](O)[C@@]1(C)C(=O)[C@H](O)C3=C(C)[C@@H](OC(=O)[C@H](O)[C@@H](NC(=O)OC(C)(C)C)c4ccccc4)C[C@@](O)([C@@H](OC(=O)c4ccccc4)[C@H]21)C3(C)C [docetaxel]	–	–	–	grow slightly faster than those in the control animals	143	very similar in size to those treated with vehicle; also recorded: indistinguishable	Decreased tumor growth; also recorded: significant decreases in tumor size	inhibited tumor growth	remained within −20% endpoint limit
